From publication PMC12137546, “Development of a microarray based telomerase binding assay reveals unusual binding of a cytochalasin derivative” (Scientific Reports, 2025)
pEC50, pKd: −log10 of the molar value.

Experiments:
[1] = target: T1, telomerase reverse transcriptase (TERT) (Homo sapiens, UniProt O14746); test: microscale thermophoresis; also microarray displacement of Cy5 primer cocktail (EC50 […]) and TRAP inhibition in cell lysate; format: binding; set-up: recombinant His-tagged full-length human TERT (pET28aTERT, E. coli, urea/N-lauroylsarcosine solubilized, Ni-IMAC)
T1 sequence (O14746 whole entry): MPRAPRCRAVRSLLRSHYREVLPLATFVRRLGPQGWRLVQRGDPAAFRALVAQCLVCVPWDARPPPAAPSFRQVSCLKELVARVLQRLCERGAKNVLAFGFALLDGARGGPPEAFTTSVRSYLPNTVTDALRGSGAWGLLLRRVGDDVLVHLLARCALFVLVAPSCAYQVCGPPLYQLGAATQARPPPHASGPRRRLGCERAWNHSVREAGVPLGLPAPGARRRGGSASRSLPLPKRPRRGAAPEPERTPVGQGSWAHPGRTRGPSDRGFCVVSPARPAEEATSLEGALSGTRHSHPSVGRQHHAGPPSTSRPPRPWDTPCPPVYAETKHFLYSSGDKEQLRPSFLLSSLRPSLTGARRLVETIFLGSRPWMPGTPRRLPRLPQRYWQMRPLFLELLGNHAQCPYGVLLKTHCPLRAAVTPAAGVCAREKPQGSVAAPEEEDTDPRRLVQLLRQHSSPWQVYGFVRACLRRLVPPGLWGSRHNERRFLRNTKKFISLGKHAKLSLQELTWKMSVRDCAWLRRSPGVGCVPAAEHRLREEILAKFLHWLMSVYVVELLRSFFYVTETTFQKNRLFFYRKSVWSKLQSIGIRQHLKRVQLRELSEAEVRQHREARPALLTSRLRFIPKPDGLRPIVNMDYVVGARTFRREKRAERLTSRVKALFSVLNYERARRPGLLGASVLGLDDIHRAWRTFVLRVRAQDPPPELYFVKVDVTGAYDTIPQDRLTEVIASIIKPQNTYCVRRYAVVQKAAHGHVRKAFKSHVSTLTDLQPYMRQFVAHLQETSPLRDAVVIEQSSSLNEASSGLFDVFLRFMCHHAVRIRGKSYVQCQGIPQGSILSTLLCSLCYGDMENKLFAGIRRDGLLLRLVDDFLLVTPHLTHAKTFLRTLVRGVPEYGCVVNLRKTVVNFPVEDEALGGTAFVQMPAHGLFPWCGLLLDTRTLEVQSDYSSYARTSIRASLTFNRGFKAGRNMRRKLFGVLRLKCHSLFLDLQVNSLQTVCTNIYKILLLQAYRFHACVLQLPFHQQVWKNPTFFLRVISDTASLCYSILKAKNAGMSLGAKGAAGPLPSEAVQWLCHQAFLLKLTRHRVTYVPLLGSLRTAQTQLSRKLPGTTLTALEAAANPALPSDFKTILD

[2] = target: T1, telomerase reverse transcriptase (TERT); test: microarray displacement of Cy5 primer cocktail from spotted TERT and lysates; TRAP inhibition in lysate at […]; format: binding; set-up: recombinant His-tagged full-length human TERT (pET28aTERT, E. coli) and cell lysates

## O=C(O[C@@H]1Cc2c(O)cc(O)cc2O[C@@H]1c1cc(O)c(O)c(O)c1)c1cc(O)c(O)c(O)c1 [EGCG, epigallocatechin-3-gallate]
[1]
  pKd: ~4.59

## C=C1[C@@H](C)C2[C@H](Cc3ccc(I)cc3)NC(=O)[C@@]23C(/C=C/C[C@H](C)C[C@@](C)(O)/C=C/[C@H]3OC(C)=O)[C@@H]1O (some centres unmarked) [compound 7, 4’-iodo cytochalasin H]
[2]
  pEC50: 5.36 to 5.56
